{"source": "ChEMBL document CHEMBL6134922", "about": "(ACS Med Chem Lett, 2025)", "key": {"[1]": {"assay": "Plasma protein binding in human assessed as percent bound at 5 uM incubated for 6 hrs by equilibrium dialysis based HPLC analysis"}, "[2]": {"assay": "Plasma protein binding in mouse assessed as bound fraction at 5 uM incubated for 6 hrs by equilibrium dialysis based HPLC analysis"}, "[3]": {"assay": "Plasma protein binding in mouse assessed as unbound fraction at 5 uM incubated for 6 hrs by equilibrium dialysis based HPLC analysis", "type": "ADME, cell-free"}, "[4]": {"assay": "Cmax in CD-1 mouse at 10 mg/kg, ip measured up to 24 hrs by LC-MS/MS analysis", "type": "ADME, organism-based", "conditions": "in vivo"}, "[5]": {"assay": "Unbound fraction in rat brain at 5 uM incubated for 6 hrs by equilibrium dialysis based HPLC analysis", "type": "ADME, tissue-based"}, "[6]": {"assay": "Cmax in CD-1 mouse at 10 mg/kg, po measured up to 24 hrs by LC-MS/MS analysis", "type": "ADME, organism-based", "conditions": "in vivo"}, "[7]": {"assay": "Unbound fraction in mouse brain at 5 uM incubated for 6 hrs by equilibrium dialysis based HPLC analysis", "type": "ADME, tissue-based"}, "[8]": {"assay": "AUC in CD-1 mouse at 10 mg/kg, ip measured up to 24 hrs by LC-MS/MS analysis", "type": "ADME, organism-based", "conditions": "in vivo"}, "[9]": {"assay": "AUC in CD-1 mouse at 10 mg/kg, po measured up to 24 hrs by LC-MS/MS analysis", "type": "ADME, organism-based", "conditions": "in vivo"}, "[10]": {"assay": "Plasma protein binding in human assessed as unbound fraction at 5 uM incubated for 6 hrs by equilibrium dialysis based HPLC analysis", "type": "ADME, cell-free"}}, "data": [{"smiles": "Cc1cc(C#Cc2ccccc2)cnc1NC(=O)c1cc(NC(=O)OC(C)(C)C)ccc1Cl", "values": [{"measurement": "plasma protein binding (% bound)", "setting": "[1]", "value": 99.5, "unit": "%"}, {"measurement": "plasma protein binding (% bound)", "setting": "[2]", "value": 98.7, "unit": "%"}]}, {"smiles": "CC(C)(C)OC(=O)Nc1ccc(Cl)c(C(=O)Nc2ncc(C#Cc3ccccc3)cc2F)c1", "values": [{"measurement": "plasma protein binding (% bound)", "setting": "[1]", "value": 99.8, "unit": "%"}, {"measurement": "plasma protein binding (% bound)", "setting": "[2]", "value": 98.9, "unit": "%"}]}, {"smiles": "CC(C)(C)OC(=O)Nc1ccc(Cl)c(C(=O)Nc2ncc(C#Cc3ccccc3)cc2Cl)c1", "values": [{"measurement": "fraction unbound at 6 h, 5 µM", "setting": "[3]", "value": "> 0.999"}]}, {"smiles": "Cc1cc(C#Cc2ccc(F)cc2)cnc1NC(=O)c1cc(NC(=O)OC(C)(C)C)ccc1Cl", "values": [{"measurement": "Cmax", "setting": "[4]", "value": 888, "unit": "nM"}, {"measurement": "fraction unbound at 6 h, 5 µM", "setting": "[5]", "value": "> 0.999"}, {"measurement": "Cmax", "setting": "[6]", "value": 252, "unit": "nM"}, {"measurement": "fraction unbound at 6 h, 5 µM", "setting": "[7]", "value": 0.994}, {"measurement": "AUC at 24 h", "setting": "[8]", "value": 12.3, "unit": "µM·h"}, {"measurement": "AUC at 24 h", "setting": "[9]", "value": 2.27, "unit": "µM·h"}]}, {"smiles": "Cc1cc(C#Cc2cccc(F)c2)cnc1NC(=O)c1cc(NC(=O)OC(C)(C)C)ccc1Cl", "values": [{"measurement": "fraction unbound at 6 h, 5 µM", "setting": "[10]", "value": "> 0.999"}, {"measurement": "fraction unbound at 6 h, 5 µM", "setting": "[3]", "value": "> 0.999"}]}]}
